The Kinase Knowledgebase extract (Sharma et al. 2016)

Columns and labels:
[1] = target: CDK2 (Human) (UniProt P24941); assay: Enzyme Assay
[2] = target: CDK2 (Human) (UniProt P24941); assay: Enzyme Assay; remark: listed apart in the source

SMILES	IC50 [1] [nM]	IC50 [2] [nM]
NC1=NC(=O)/C(=C2\CCNC(=O)c3[nH]c4ccccc4c32)N1		1280
O=C1Nc2ccc(I)cc2/C1=C1/Nc2ccccc2/C1=N\O	1520	379
CC(C)[C@H](CO)Nc1nc(Nc2cccc(Cl)c2)c2ncn(C(C)C)c2n1	503	204
O=C1Nc2ccc3ncsc3c2/C1=C/c1cnc[nH]1	94	135
O=C1NC(=O)c2c1c1c3ccccc3n3c1c1c2c2ccccc2n1C1CCC3O1	283	871
Cn1cc(C2=C(c3cn(CCCSC(=N)N)c4ccccc34)C(=O)NC2=O)c2ccccc21	147	318
CC(=O)O/N=C1/C(=C2/C(=O)Nc3cc(Br)ccc32)Nc2ccccc21	78300	787
O=C1Nc2ccccc2C1=C1Nc2ccccc2C1=NOCCC(O)CO (stereo not drawn)		930
N#CCCc1ccc2c(c1)-c1[nH]c3ccc([N+](=O)[O-])cc3c1CC(=O)N2	216	333

Further lines, results first:

IC50 [1] [nM]	IC50 [2] [nM]	SMILES
6470	4490	CCN(CC)C(=O)c1ccc(Nc2nc(OCC3CCCCC3)c3[nH]cnc3n2)cc1
3910	24500	CCCCCCCCCCCCCCCCn1cc[n+](Cc2ccccc2)c1C
> 25000	> 25000	COc1cc(Nc2ncc3ccn(-c4cccc(CCC#N)c4)c3n2)cc(OC)c1OC
67	141	CC(C)c1[nH]n(-c2c(Cl)cccc2Cl)c2nc(Cc3ccc(OCCO)cc3)nc(=O)c1-2
1210	506	CC(C)n1cnc2c(NCc3ccccc3O)nc(NCCCO)nc21
168	278	Cc1ccc([N+](=O)[O-])cc1S(=O)(=O)N(C)/N=C/c1cnc2ccc(Br)cn12
